Results on four compounds are retold here after EPA's ToxRefDB 2.

The test system of data set [1] is mouse. The following applies: Combined chronic toxicity/carcinogenicity; b6c3f1; Oral; Gavage/Intubation; dose end: 52 week; group: systemic; systemic / organ weight / liver / absolute + systemic / organ weight / liver / relative to body weight + systemic / pathology microscopic / ….
Data set [2] relates to rat. To be noted: Subchronic oral toxicity in rodents, sprague dawley, Water, dose end: 90 day, group: systemic.
Data set [3] deals with rat. To be noted: Combined chronic toxicity/carcinogenicity; sprague dawley; Inhalation; Whole-Body; dose end: 24 month; group: systemic; systemic / clinical chemistry / alanine aminotransferase (alt/sgpt) / alanine aminotransferase (alt/sgpt) + systemic / clinical chemistry / ….
Data set [4] has as its system rat. To be noted: Subchronic oral toxicity in rodents; sprague dawley; Inhalation; Whole-Body; dose end: 3 month; group: systemic; systemic / clinical chemistry / gamma glutamyl transferase (ggt) / gamma glutamyl transferase (ggt) + systemic / clinical chemistry / ….
In data set [5] the test system is primate. The following applies: Sub-acute repeat dose toxicity; Oral; Gavage/Intubation; dose end: 9 day; group: systemic; systemic / clinical chemistry / [other] / [other] + systemic / clinical chemistry / alanine aminotransferase (alt/sgpt) / alanine ….
The test system of data set [6] is rat. To be noted: Sub-acute repeat dose toxicity; sprague dawley; Oral; Gavage/Intubation; dose end: 28 day; group: systemic; systemic / in life observation / body weight / body weight + systemic / in life observation / clinical signs / feces, discoloration + ….
The test system of data set [7] is primate. The following applies: Sub-acute repeat dose toxicity, Oral, Gavage/Intubation, dose end: 30 day, group: systemic.
Data set [8] has as its system primate. To be noted: Sub-acute repeat dose toxicity; Oral; Gavage/Intubation; dose end: 5 day; group: systemic; systemic / clinical chemistry / bilirubin / total bilirubin + systemic / in life observation / clinical signs / abnormal feces + systemic / ….
The subject of data set [9] is rat. To be noted: Sub-acute repeat dose toxicity; sprague dawley; Oral; Gavage/Intubation; dose end: 14 day; group: systemic; systemic / hematology / erythrocyte (rbc) count differential / erythrocyte (rbc) + systemic / hematology / fibrinogen / fibrinogen + ….
Data set [10] has as its system mouse. To be noted: Subchronic oral toxicity in rodents, b6c3f1, Gavage/Intubation, dose end: 14 week, group: systemic, systemic / hematology / erythrocyte (rbc) count differential / erythrocyte (rbc) + systemic / hematology / hematocrit (hct) / hematocrit (….
Data set [11] has as its system rat. The following applies: Subchronic oral toxicity in rodents, fischer, Gavage/Intubation, dose end: 14 week, group: systemic.
[12] abbreviates: systemic / clinical chemistry / alanine aminotransferase (alt/sgpt) / alanine aminotransferase (alt/sgpt) + systemic / clinical chemistry / ….
Setting [13] is: systemic / clinical chemistry / protein / protein.
Setting [14] is: systemic / in life observation / mortality / mortality + systemic / clinical chemistry / [other] / [other] + systemic / hematology / ….
Where [15] appears, read: systemic / pathology gross / full gross necropsy / hemorrhage + systemic / pathology gross / full gross necropsy / lesion(s) (nos).
Setting [16] is: systemic / hematology / hematocrit (hct) / hematocrit (hct) + systemic / pathology microscopic / nose / degeneration + systemic / clinical ….

For `O=C(O)C(Cl)Cl` [Dichloroacetic acid], in the data set with mouse [1], the LEL was 133 mg/kg/day; the LOAEL (in general, the lowest dose or exposure tested at which an adverse effect was seen) is above 267 mg/kg/day; the NEL was below 133 mg/kg/day; the NOAEL (in general, the highest tested level that showed no adverse finding) is at least 267 mg/kg/day. Also, in the data set on rat [2] (setting [12]), the LOAEL was above 345 mg/kg/day and the NOAEL is at least 345 mg/kg/day. In the data set on rat [2] (setting [13]), the LEL came out at 3.9 mg/kg/day and the NEL is below 3.9 mg/kg/day.

Take `C=CN1CCCC1=O` [N-Vinyl-2-pyrrolidone]: in the data set with rat [3], the LEL stood at 5 ppm, the LOAEL was above 20 ppm, the NEL is below 5 ppm and the NOAEL was at least 20 ppm. In addition, in the data set on rat [4], the LEL came out at 45 ppm, the LOAEL is above 45 ppm, the NEL was below 45 ppm and the NOAEL was at least 45 ppm.

As to `NC(=O)N1C(=O)C(C(=O)c2ccc(F)s2)c2cc(F)c(Cl)cc21` (centres undefined), the LEL with primate [5] is 2 mg/kg/day; with rat [6], 3 mg/kg/day; with primate [7] (setting [15]), 1 mg/kg/day; with primate [8], 30 mg/kg/day; in the data set on rat [9] it was 30 mg/kg/day. In addition, the LOAEL with primate [5] is above 20 mg/kg/day; in the data set with rat [6] it was above 20 mg/kg/day; in the data set with primate [7] (setting [14]), above 10 mg/kg/day; in the data set on primate [8], above 30 mg/kg/day; in the data set with rat [9], above 30 mg/kg/day. For the same compound, the NEL in the data set with primate [5] was below 2 mg/kg/day; in the data set with rat [6], below 3 mg/kg/day; with primate [7] (setting [15]), below 1 mg/kg/day; in the data set on primate [8], below 30 mg/kg/day; in the data set on rat [9], 10 mg/kg/day. Further, the NOAEL was at least 20 mg/kg/day in the data set on primate [5]; at least 20 mg/kg/day in the data set with rat [6]; at least 10 mg/kg/day in the data set with primate [7] (setting [14]); at least 30 mg/kg/day with primate [8]; at least 30 mg/kg/day in the data set on rat [9].

Take `CCCC=NO` [Butanal oxime]: in the data set on mouse [10], the LEL worked out at 25 mg/kg/day, the LOAEL is above 600 mg/kg/day, the NEL was below 25 mg/kg/day and the NOAEL was at least 600 mg/kg/day. In the data set on rat [11] (setting [12]), the LOAEL is above 600 mg/kg/day and the NOAEL was at least 600 mg/kg/day. Further, in the data set on rat [11] (setting [16]), the LEL is 25 mg/kg/day and the NEL was below 25 mg/kg/day.
